Values of other authors, collected in patent US20070141182A1, “Combination of multiple nonteroidal antiinflammatory drugs and muscle relaxants for local treatment of musculoskeletal pain” (priority 2005, published 2007).

Experiments:
[1] = for patient ratings of efficacy versus placebo: topical commercial forms
[2] = topical gel, 6 patients
[3] = 2.5% gel daily, 10 healthy subjects
[4] = compared with more traditional NSAIDs
[5] = 75 mg/ml in the donor gel, human skin
[6] = dissolved in lecithin microemulsion gel

In the case of CC(C)Cc1ccc(C(C)C(=O)O)cc1 (centres unmarked) [ibuprofen], the “COX-1 / COX-2 isoform selectivity of inhibition” value (COX-1 and COX-2) is listed as “inhibit both COX-1 and COX-2 equally” and the “patient ratings of efficacy versus placebo” value [1] is listed as “superior efficacy”.

In the case of CC(C(=O)O)c1cccc(C(=O)c2ccccc2)c1 (centres unmarked) [ketoprofen], the “ketoprofen concentration in capsular sample” value [2] is given as 2.35 µg/g, the “ketoprofen concentration in intra-articular adipose tissue” value [2] is given as 4.7 µg/g and the “ketoprofen concentration in synovial fluid” value [2] is given as 1.4 µg/g. For the same compound, the “plasma concentrations as share of the daily dose applied” value [3] was 2.6% and the “patient ratings of efficacy versus placebo” value [1] was “superior efficacy”.

For COc1ccc2cc(CCC(C)=O)ccc2c1 [Nabumetone], the “COX-1 / COX-2 isoform selectivity of inhibition” value (COX-1 and COX-2) is given as “more selectively inhibit COX-2” and the “incidence of gastric lesions” value [4] is given as “lower incidence of gastric lesions”.

For CN1C(C(=O)Nc2ccccn2)=C(O)c2ccccc2S1(=O)=O [Piroxicam, piroxicam], the “COX-1 / COX-2 isoform selectivity of inhibition” value (COX-1 and COX-2) is listed as “preferentially inhibit COX-1” and the “patient ratings of efficacy versus placebo” value [1] is listed as “superior efficacy”.

In the case of CC(C(=O)O)c1ccc(-c2ccccc2)c(F)c1 (centres unmarked) [Flurbiprofen, flurbiprofen], the “COX-1 / COX-2 isoform selectivity of inhibition” value (COX-1 and COX-2) is listed as “inhibit both COX-1 and COX-2 equally”.

In the case of O=C(Oc1ccccc1C(=O)O)c1ccccc1O [salsalate], the inhibition of prostaglandins (prostaglandins) is given as “only weakly inhibit prostaglandins”.

For CC(=O)Oc1ccccc1C(=O)O [ASA, acetylsalicylic acid], the “decrease in pain (VAS)” value (oral ASA 500 mg) is given as 15.4% and the “patients with a poor response” value (oral administration) is given as 79%.

For CCc1cccc2c3c([nH]c12)C(CC)(CC(=O)O)OCC3 (centres unmarked) [etodolac], the “COX-1 / COX-2 isoform selectivity of inhibition” value (COX-1 and COX-2) is given as “more selectively inhibit COX-2” and the “incidence of gastric lesions” value [4] is given as “lower incidence of gastric lesions”.

In the case of CC(C)(C)NCC(O)c1cc(Br)no1 (centres unmarked) [broxaterol], the “flux through the skin” value [5] is listed as 47 μg.h^−1 cm^−2.

In the case of O=C(O)Cc1ccccc1Nc1c(Cl)cccc1Cl [diclofenac], the steady-state flux [6] is listed as “about 1 μg h^−1 cm^−2”.

In the case of magnesium choline trisalicylate, the inhibition of prostaglandins (prostaglandins) is listed as “only weakly inhibit prostaglandins”.

For COc1ccc2c(c1)c(CC(=O)O)c(C)n2C(=O)c1ccc(Cl)cc1 [indomethacin], the “COX-1 / COX-2 isoform selectivity of inhibition” value (COX-1 and COX-2) is given as “preferentially inhibit COX-1”, the steady-state flux [6] is given as “about 1 μg h^−1 cm^−2” and the “efficacy of topical versus oral administration” value ([1]; human, in vivo, po) is given as “as effective as therapeutic doses of oral indomethacin”. The “patient ratings of efficacy versus placebo” value [1] was “superior efficacy”.

In the case of Cc1ccc(Cl)c(Nc2ccccc2C(=O)O)c1Cl [meclofenamate], the “COX-1 / COX-2 isoform selectivity of inhibition” value (COX-1 and COX-2) is listed as “inhibit both COX-1 and COX-2 equally”.

In the case of CS(=O)(=O)c1ccc(C2=C(c3ccccc3)C(=O)OC2)cc1 [rofecoxib], the “COX-1 / COX-2 isoform selectivity of inhibition” value (COX-1 and COX-2) is listed as “highly selective and potent inhibitors of COX-2”.
